Assay results as given in patent US11896592B2, “Certain triazolopyridines and triazolopyrazines, compositions thereof and methods of use therefor” (Hutchison Medipharma Limited, priority 2009, dated 2024).

Molecular target: T1, Recombinant human Met (c-Met) (Homo sapiens, UniProt P08581)
T1 construct: purchased Invitrogen PV3143
Assay: Inhibition of c-Met kinase activity using Transcreener FP assay
Format: biochemical
Conditions: Poly E4Y substrate, 28° C. 45 min, read-out: IC50, inhibition of c-Met kinase activity

T1 sequence (P08581 956-1390 limits assumed): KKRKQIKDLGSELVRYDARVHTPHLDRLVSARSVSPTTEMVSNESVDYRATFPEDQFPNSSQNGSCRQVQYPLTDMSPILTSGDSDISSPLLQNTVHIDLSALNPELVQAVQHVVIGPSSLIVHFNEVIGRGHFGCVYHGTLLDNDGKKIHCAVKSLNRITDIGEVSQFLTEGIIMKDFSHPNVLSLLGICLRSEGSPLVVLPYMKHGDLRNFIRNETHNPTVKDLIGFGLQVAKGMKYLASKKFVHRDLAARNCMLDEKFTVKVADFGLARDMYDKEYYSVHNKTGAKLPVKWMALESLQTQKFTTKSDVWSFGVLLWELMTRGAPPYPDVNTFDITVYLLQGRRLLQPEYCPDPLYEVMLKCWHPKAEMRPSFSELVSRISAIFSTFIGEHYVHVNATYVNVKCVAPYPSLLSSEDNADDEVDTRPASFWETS

| IC50 [nM] | SMILES |
| --- | --- |
| 1 to 100 | Cn1cc(-c2cnc3nnn(Cc4ccc5ncc(Br)n5c4)c3n2)cn1 [Compound 278, 1-((3-Bromoimidazo[1,2-a]pyridin-6-yl)methyl)-6-(1-methyl-1H-pyrazol-4-yl)-1H-[1,2,3]triazolo[4,5-b]pyrazine] |
| 100 to 1000 | Cc1ccc(-c2ccc3nnn(Cc4ccc5ncccc5c4)c3n2)cn1 [Compound 79] |
| 1 to 100 | CCCn1cc(-c2cnc3nnn(Cc4ccc5nccn5c4)c3n2)cn1 [Compound 47] |
| 100 to 1000 | c1cnc2ccc(Cn3nnc4ccc(-c5cnn(C6CCOCC6)c5)nc43)cc2c1 [Compound 118] |
| 1 to 100 | OCC1CCN(c2ccc3nnn(Cc4ccc5ncccc5c4)c3n2)CC1 [Compound 245] |
| 100 to 1000 | Cn1cc(-c2ccc3nnn(C4(c5ccc6ncccc6c5)CC4)c3n2)cn1 [Compound 122] |
| 1 to 100 | N#CCn1cc(-c2cnc3nnn(Cc4ccn5nccc5c4)c3n2)cn1 [Compound 301] |
| 1 to 100 | c1cnc2ccc(Cn3nnc4ncc(Nc5ccnc(NC6CCOC6)c5)nc43)cc2c1 (stereo not drawn) [Compound 222] |
| 1 to 100 | CNC(=O)c1cncc(Nc2cnc3nnn(Cc4ccc5ncccc5c4)c3n2)c1 [Compound 192] |
| 1 to 100 | CS(=O)(=O)Nc1ccc(-c2ccc3nnn(Cc4ccc5ncccc5c4)c3n2)cn1 [Compound 90] |
| 1 to 100 | CC(C)n1cc(-c2ccc3nnn(Cc4ccc5ncccc5c4)c3n2)cn1 [Compound 144] |
| 100 to 1000 | CC(c1cc2[nH]ncc2s1)n1nnc2ncc(-c3cnn(C)c3)nc21 (stereo not drawn) [Compound 299] |
| 100 to 1000 | CC1N=CC(c2cnc3nnn(Cc4cc5cccnc5s4)c3n2)=N1 (stereo not drawn) [Compound 2] |
| 1 to 100 | c1nn(C2CNC2)cc1-c1cnc2nnn(Cc3cc4[nH]ncc4s3)c2n1 [Compound 283] |
| 100 to 1000 | CC(O)Cn1cc(-c2ccc3nnn(Cc4ccc5ncccc5c4)c3n2)cn1 (stereo not drawn) [Compound 100] |
| 1 to 100 | CC(c1ccc2nccn2c1)n1nnc2ncc(-c3cn[nH]c3)nc21 (stereo not drawn) [Compound 328] |
| 1 to 100 | FC(F)(F)c1ccnc(Nc2cnc3nnn(Cc4ccc5ncccc5c4)c3n2)c1 [Compound 220] |
| 100 to 1000 | C[C@H](c1ccc2ncccc2c1)n1nnc2ccc(-c3cnn(CCO)c3)nc21 [Compound 78] |
| 1 to 100 | CN(c1ccnc(C#N)c1)c1cnc2nnn(Cc3ccc4ncccc4c3)c2n1 [Compound 239] |
| 100 to 1000 | OCCn1cc(-c2ccc3nnn(Cc4ccc5ncsc5c4)c3n2)cn1 [Compound 73] |
| 1 to 100 | Cc1cc(Nc2ccc3nnn(Cc4ccc5ncccc5c4)c3n2)ccn1 [Compound 235] |

| IC50 [nM] | SMILES |
| --- | --- |
| 1 to 100 | OC1COCC1Nc1ccnc(Nc2cnc3nnn(Cc4ccc5ncccc5c4)c3n2)c1 (stereo not drawn) [Compound 226] |
| 1 to 100 | COCc1cnc2ccc(Cn3nnc4ncc(-c5cnn(CCO)c5)nc43)cn12 [Compound 309] |
| 1 to 100 | OCc1ccc(-c2ccc3nnn(Cc4ccc5ncccc5c4)c3n2)s1 [Compound 104] |
| 1 to 100 | COCCOc1cccc(Nc2cnc3nnn(Cc4ccc5ncccc5c4)c3n2)n1 [Compound 227] |
| 1 to 100 | c1cnc2ccc(Cn3nnc4ncc(Nc5ccnc(O[C@@H]6CCOC6)c5)nc43)cc2c1 [Compound 218] |
| 100 to 1000 | c1cc2sc(Cn3nnc4ncc(-c5cnn(C6CCNCC6)c5)nc43)cc2cn1 [Compound 18] |
| 1 to 100 | c1cnc2ccc(Cn3nnc4ncc(Nc5ccc(N6CCOCC6)cn5)nc43)cc2c1 [Compound 165] |
| 100 to 1000 | c1c[nH]c(-c2ccc3nnn(Cc4ccc5ncccc5c4)c3n2)c1 [Compound 64] |
| 100 to 1000 | OCCn1cc(-c2cnc3nnn(Cc4ccn5ncnc5c4)c3n2)cn1 [Compound 317] |
| 1 to 100 | c1cncc(Nc2cnc3nnn(Cc4ccc5ncccc5c4)c3n2)c1 [Compound 212] |
| 1 to 100 | N#Cc1cc(Nc2ccc3nnn(Cc4ccc5ncccc5c4)c3n2)ccn1 [Compound 215] |
| 100 to 1000 | FC(F)(F)Cn1cc(-c2cnc3nnn(Cc4ccn5nccc5n4)c3n2)cn1 [Compound 293] |
| 1 to 100 | CC(c1cc2cnccc2s1)n1nnc2ncc(-c3cnn(CCO)c3)nc21 (stereo not drawn) [Compound 21] |
| 1 to 100 | Cc1ccc(Nc2cnc3nnn(Cc4ccc5ncccc5c4)c3n2)cn1 [Compound 155] |
| 1 to 100 | COc1ccc(-c2cnc3nnn(Cc4ccc5ncnn5c4)c3n2)cc1 [Compound 59] |
| 100 to 1000 | c1ccc(Oc2cnc3nnn(Cc4ccc5ncccc5c4)c3n2)nc1 [Compound 257] |
| 1 to 100 | CCn1cc(-c2ccc3nnn(Cc4ccc5ncccc5c4)c3n2)cn1 [Compound 95] |
| 1 to 100 | Nc1cccc(Oc2cnc3nnn(Cc4ccc5ncccc5c4)c3n2)n1 [Compound 259] |
| 100 to 1000 | COCCn1cc(-c2ccc3nnn(Cc4ccc5ncccc5c4)c3n2)cn1 [Compound 93] |
| 1 to 100 | Cc1cnc(Nc2cnc3nnn(Cc4ccc5ncccc5c4)c3n2)s1 [Compound 176] |
| 100 to 1000 | COCCn1cc(-c2cnc3nnn(Cc4cc5cnccc5s4)c3n2)cn1 [Compound 23] |
